Twelve molecules from patent US11530229B2, “Cyano cyclobutyl compounds for CBL-B inhibition and uses thereof” (Nurix Therapeutics, Inc., priority 2019, dated 2022) can be followed below.

The target in one experiment is Cbl-b (Homo sapiens (Human), UniProt Q13191). In words: Cbl-b displacement assay (Cbl-b inhibition assay), Biological Example 1. In kind it is binding. The procedure:
Candidate compounds were evaluated for their ability to bind and inhibit Cbl-b, an E3 ubiquitin-protein ligase, as evidenced by their ability to displace a fluorophore-labeled probe (Example 59) bound to Cbl-b.
The ability of candidate compounds to displace a known inhibitor and thereby inhibit Cbl-b activity was measured by monitoring the interaction of Cbl-b with a fluorophore-labeled probe in the presence of the candidate compound. A truncated variant of Cbl-b (UniProt number Q13191; SEQ ID NO:1) containing an Avitag at its N-terminus was co-expressed with BirA biotin ligase and purified using a standard protocol (see Dou et al., Nature Structural and Molecular Biology, 8: 982-987, 2013; Avidity LLC).
Cbl-b Amino Acid Residues 36-427:
Fluorescently-labeled inhibitor probe was synthesized and tagged with BODIPY FL (Example 59). Cbl-b displacement assays were performed in a 384-well plate at room temperature in a 10 μL reaction volume by pre-incubating 0.5 nM Cbl-b or 0.125 nM Cbl-b (final concentration, indicated as “High” and “Low”, respectively) in an assay buffer containing 20 mM HEPES pH 7.5, 150 mM NaCl, 0.01% Triton X-100, 0.01% BSA and 0.5 mM TCEP in the presence of a candidate compound in 1% DMSO (final concentration) for 1 hour. After incubation in the presence of the candidate compound, the plate was incubated for an additional 1 hour in the presence of an approximate EC40 binding saturation consisting of 150 nM fluorescently-labeled inhibitor probe and 2 nM Streptavidin-Terbium (Cisbio) (final concentrations). Following the 1 hour incubation, the plates were read for TR-FRET signal at […] using an Envision plate reader (Perkin Elmer).

The subject of experiment [1] is primary human total T-cells. Kind of experiment: T-cell activation, IL-2 secretion, Biological Example 2. Type of experiment: cell-based. To be noted: 48 hours, fold change over baseline; for fold induction at 0.3 µM: 0.3 μM inhibitor; for fold induction at 1 µM: 1 μM inhibitor; for fold induction at 3 µM: 3 μM inhibitor.
Experiment [2] relates to primary human total T-cells. Kind of experiment: T-cell activation, CD25 surface staining, Biological Example 2. In kind it is cell-based. As to conditions: 48 hours, fold change over baseline; for fold induction at 0.3 µM: 0.3 μM inhibitor; for fold induction at 1 µM: 1 μM inhibitor; for fold induction at 3 µM: 3 μM inhibitor.
Where [3] appears, read: 0.125 nM Cbl-b final concentration (Low), read-out: Cbl-b activity IC50 (Low).
Where [4] appears, read: read-out: IC50 values in the Cbl-b inhibition assay of Biological Example 1.
Setting [5] is: anti-CD3 and anti-CD28 co-stimulation.
Setting [6] is: anti-CD3 and anti-CD28 co-stimulation, read-out: IL-2 secretion CD3/CD28 1 μM.
[7] abbreviates: anti-CD3 stimulation alone, read-out: IL-2 secretion CD3 1 μM.
[8] abbreviates: anti-CD3 and anti-CD28 co-stimulation, read-out: CD25 staining CD3/CD28 1 μM.
The mark [9] stands for this setting: anti-CD3 stimulation alone, read-out: CD25 staining CD3 1 μM.

SMILES strings stand for the structures. Where two headings read alike, the source gives them in different places. Some results are limits rather than exact numbers.

Sequence of Cbl-b (Q13191 36-427): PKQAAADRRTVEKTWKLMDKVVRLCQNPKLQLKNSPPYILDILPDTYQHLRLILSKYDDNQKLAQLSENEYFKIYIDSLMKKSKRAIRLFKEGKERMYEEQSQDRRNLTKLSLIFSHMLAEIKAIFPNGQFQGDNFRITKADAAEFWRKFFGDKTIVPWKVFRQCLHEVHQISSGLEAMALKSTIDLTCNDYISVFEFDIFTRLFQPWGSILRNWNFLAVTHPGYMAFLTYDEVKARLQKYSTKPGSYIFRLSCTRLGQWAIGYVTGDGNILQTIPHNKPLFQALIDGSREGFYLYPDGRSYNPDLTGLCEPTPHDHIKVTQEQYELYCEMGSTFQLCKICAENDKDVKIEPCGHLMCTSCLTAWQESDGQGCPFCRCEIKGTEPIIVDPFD

As to `Cn1cnnc1C[C@]1(c2cccc(N3Cc4c(cc(CNC5CCC(C)(C)C5)cc4C(F)(F)F)C3=O)c2)C[C@H](C#N)C1` (stereo partly shown) [Compound 31, (1r,3r)-3-(3-(6-(((3,3-dimethylcyclopentyl)amino)methyl)-1-oxo-4-(trifluoromethyl)isoindolin-2-yl)phenyl)-3-((4-methyl-4H-1,2,4-triazol-3-yl)methyl)cyclobutane-1-carbonitrile], the IC50 on Cbl-b (setting [3]) and at Cbl-b (setting [4]) was under 1 nM in each case. Moreover, the fold induction at 0.3 µM in experiment [1] (setting [5]) was over 20; in experiment [2] (setting [5]), over 1.39. In addition, the fold induction at 1 µM in experiment [1] (setting [6]) was over 20; in experiment [1] (setting [7]), over 0.85; in experiment [2] (setting [8]) it was over 1.39; in experiment [2] (setting [9]) it was over 1.15. Moreover, the figures for the fold induction at 3 µM in experiment [1] (anti-CD3 stimulation alone) and in experiment [2] (anti-CD3 stimulation alone) were over 0.85 and over 1.15, respectively.
As for `CC1CCCCN(Cc2cc3c(c(C(F)(F)F)c2)CN(c2cccc([C@]4(Cc5nncn5C)C[C@@H](C#N)C4)c2)C3=O)C1` (stereo partly shown) [Compound 25, (1r,3r)-3-((4-methyl-4H-1,2,4-triazol-3-yl)methyl)-3-(3-(6-((3-methylazepan-1-yl)methyl)-1-oxo-4-(trifluoromethyl)isoindolin-2-yl)phenyl)cyclobutane-1-carbonitrile], the IC50 at Cbl-b (setting [3]) and at Cbl-b (setting [4]) was under 1 nM each time. The fold induction at 0.3 µM in experiment [1] (setting [5]) is over 20; in experiment [2] (setting [5]), 1.24 to 1.39. For the same molecule, the fold induction at 1 µM in experiment [1] (setting [6]) was over 20; in experiment [1] (setting [7]) it was over 0.85; in experiment [2] (setting [8]), 1.24 to 1.39; in experiment [2] (setting [9]), 1 to 1.15. Also, the fold induction at 3 µM in experiment [1] (anti-CD3 stimulation alone) was over 0.85; in experiment [2] (anti-CD3 stimulation alone), at most 1.
`Cn1cnnc1C[C@]1(c2cccc(N3Cc4c(cc(CN5CCC6CCC(C5)O6)cc4C(F)(F)F)C3=O)c2)C[C@H](C#N)C1` (stereo partly shown) [Compound 37, (1r,3r)-3-(3-(6-((9-oxa-3-azabicyclo[4.2.1]nonan-3-yl)methyl)-1-oxo-4-(trifluoromethyl)isoindolin-2-yl)phenyl)-3-((4-methyl-4H-1,2,4-triazol-3-yl)methyl)cyclobutane-1-carbonitrile]: the IC50 (in general, the concentration needed to halve the response being measured) on Cbl-b (setting [3]) is 2 to 5 nM. The fold induction at 0.3 µM was at most 15 in experiment [1] (setting [5]) and 1.24 to 1.39 in experiment [2] (setting [5]). In addition, the fold induction at 1 µM in experiment [1] (setting [6]) is 15 to 20; in experiment [1] (setting [7]), under 0.4; in experiment [2] (setting [8]), 1.24 to 1.39; in experiment [2] (setting [9]), 1 to 1.15. Moreover, the fold induction at 3 µM in experiment [1] (anti-CD3 stimulation alone) was 0.4 to 0.85; in experiment [2] (anti-CD3 stimulation alone), at most 1.
For `C[C@@H]1C[C@H](C)CN(Cc2cc(C(=O)Nc3cccc([C@]4(Cc5nncn5C)C[C@@H](C#N)C4)c3)nc(C3CC3)c2)C1` [Compound 54], at Cbl-b (setting [3]), the IC50 was under 1 nM. Further, the fold induction at 0.3 µM in experiment [1] (setting [5]) is over 20; in experiment [2] (setting [5]), 1.24 to 1.39. Also, the fold induction at 1 µM in experiment [1] (setting [6]) is over 20; in experiment [1] (setting [7]) it was over 0.85; in experiment [2] (setting [8]), 1.24 to 1.39; in experiment [2] (setting [9]), at most 1. The results for the fold induction at 3 µM in experiment [1] (anti-CD3 stimulation alone) and in experiment [2] (anti-CD3 stimulation alone) were over 0.85 and at most 1, respectively.
`C[C@@H]1CN(Cc2cc(C(=O)Nc3cccc([C@]4(Cc5nncn5C)C[C@@H](C#N)C4)c3)nc(C3CC3)n2)CCC1(F)F` [Compound 57, N-(3-((1r,3R)-3-cyano-1-((4-methyl-4H-1,2,4-triazol-3-yl)methyl)cyclobutyl)phenyl)-2-cyclopropyl-6-(((R)-4,4-difluoro-3-methylpiperidin-1-yl)methyl)pyrimidine-4-carboxamide]: the IC50 at Cbl-b (setting [3]) was under 1 nM. The results for the fold induction at 0.3 µM in experiment [1] (setting [5]) and in experiment [2] (setting [5]) were 15 to 20 and 1.24 to 1.39, respectively. Also, the fold induction at 1 µM was over 20 in experiment [1] (setting [6]), 0.4 to 0.85 in experiment [1] (setting [7]), 1.24 to 1.39 in experiment [2] (setting [8]) and 1 to 1.15 in experiment [2] (setting [9]). For the same molecule, the fold induction at 3 µM in experiment [1] (anti-CD3 stimulation alone) is over 0.85; in experiment [2] (anti-CD3 stimulation alone), at most 1.
On to `Cn1cnnc1C[C@]1(c2cccc(N3Cc4c(cc(CNC5CC6C(C5)C6(F)F)cc4C(F)(F)F)C3=O)c2)C[C@H](C#N)C1` (stereo partly shown) [Compound 12, (1r,3r)-3-(3-(6-(((6,6-difluorobicyclo[3.1.0]hexan-3-yl)amino)methyl)-1-oxo-4-(trifluoromethyl)isoindolin-2-yl)phenyl)-3-((4-methyl-4H-1,2,4-triazol-3-yl)methyl)cyclobutane-1-carbonitrile], for which the IC50 on Cbl-b (setting [3]) and on Cbl-b (setting [4]) was under 1 nM each time. For the same molecule, the fold induction at 0.3 µM in experiment [1] (setting [5]) is 15 to 20; in experiment [2] (setting [5]) it was 1.24 to 1.39. In addition, the fold induction at 1 µM is 15 to 20 in experiment [1] (setting [6]), over 0.85 in experiment [1] (setting [7]), 1.24 to 1.39 in experiment [2] (setting [8]) and 1 to 1.15 in experiment [2] (setting [9]). Also, the fold induction at 3 µM in experiment [1] (anti-CD3 stimulation alone) lay within 0.4 to 0.85; in experiment [2] (anti-CD3 stimulation alone), 1 to 1.15.
Consider `C[C@@H]1CN(Cc2cc3c(c(C(F)(F)F)c2)CN(c2cccc([C@]4(Cc5nncn5C)C[C@@](C)(C#N)C4)c2)C3=O)CCO1` [Compound 7, (1r,3r)-1-methyl-3-((4-methyl-4H-1,2,4-triazol-3-yl)methyl)-3-(3-(6-(((R)-2-methylmorpholino)methyl)-1-oxo-4-(trifluoromethyl)isoindolin-2-yl)phenyl)cyclobutane-1-carbonitrile], for which the IC50 at Cbl-b (setting [3]) and at Cbl-b (setting [4]) was 5 to 20 nM throughout. For the same molecule, the fold induction at 0.3 µM in experiment [1] (setting [5]) is at most 15; in experiment [2] (setting [5]) it was at most 1.24. Also, the fold induction at 1 µM in experiment [1] (setting [6]) is at most 15; in experiment [1] (setting [7]), under 0.4; in experiment [2] (setting [8]), 1.24 to 1.39; in experiment [2] (setting [9]), at most 1. The results for the fold induction at 3 µM in experiment [1] (anti-CD3 stimulation alone) and in experiment [2] (anti-CD3 stimulation alone) were under 0.4 and at most 1, respectively.
`Cn1cnnc1C[C@]1(c2cccc(N3Cc4c(cc(CN5CCCC(F)(F)CC5)cc4C(F)(F)F)C3=O)c2)C[C@H](C#N)C1` [Compound 17, (1r,3r)-3-(3-(6-((4,4-difluoroazepan-1-yl)methyl)-1-oxo-4-(trifluoromethyl)isoindolin-2-yl)phenyl)-3-((4-methyl-4H-1,2,4-triazol-3-yl)methyl)cyclobutane-1-carbonitrile]: the IC50 on Cbl-b (setting [3]) and at Cbl-b (setting [4]) was 1 to 2 nM throughout. The fold induction at 0.3 µM in experiment [1] (setting [5]) lay within 15 to 20; in experiment [2] (setting [5]), 1.24 to 1.39. Besides, the fold induction at 1 µM is over 20 in experiment [1] (setting [6]), 0.4 to 0.85 in experiment [1] (setting [7]), 1.24 to 1.39 in experiment [2] (setting [8]) and 1 to 1.15 in experiment [2] (setting [9]). The figures for the fold induction at 3 µM in experiment [1] (anti-CD3 stimulation alone) and in experiment [2] (anti-CD3 stimulation alone) were 0.4 to 0.85 and at most 1, respectively.
For the molecule `C[C@@H]1CN(Cc2cc3c(c(C(F)(F)F)c2)CN(c2cccc([C@]4(Cc5nncn5C)C[C@@H](CC#N)C4)c2)C3=O)CCC1(F)F` [Compound 51, [(1r,3r)-3-[3-(6-{[(3R)-4,4-difluoro-3-methylpiperidin-1-yl]methyl}-1-oxo-4-(trifluoromethyl)-3H-isoindol-2-yl)phenyl]-3-[(4-methyl-1,2,4-triazol-3-yl)methyl]cyclobutyl]acetonitrile], the IC50 on Cbl-b (setting [3]) and at Cbl-b (setting [4]) was at least 20 nM each time.
`Cc1cc(C(=O)Nc2cccc([C@]3(Cc4nncn4C)C[C@@](C)(C#N)C3)c2)nc(C2CC2)n1` [Compound 8, N-(3-((1r,3r)-3-cyano-3-methyl-1-((4-methyl-4H-1,2,4-triazol-3-yl)methyl)cyclobutyl)phenyl)-2-cyclopropyl-6-methylpyrimidine-4-carboxamide]: the IC50 on Cbl-b (setting [3]) and at Cbl-b (setting [4]) was at least 20 nM throughout.
As to `C[C@@H]1CN(Cc2cc3c(c(C(F)(F)F)c2)CN(c2cccc([C@]4(Cc5nncn5C)C[C@H](CC#N)C4)c2)C3=O)CCC1(F)F` [Compound 52, ((1S,3s)-3-(3-(6-(((R)-4,4-difluoro-3-methylpiperidin-1-yl)methyl)-1-oxo-4-(trifluoromethyl)isoindolin-2-yl)phenyl)-3-((4-methyl-4H-1,2,4-triazol-3-yl)methyl)cyclobutyl)acetonitrile], the IC50 at Cbl-b (setting [3]) and at Cbl-b (setting [4]) was 5 to 20 nM in each case.
Regarding `C[C@@H]1CN(C(C)(C)c2cc3c(c(C(F)(F)F)c2)CN(c2cccc([C@]4(Cc5nncn5C)C[C@@H](C#N)C4)c2)C3=O)CCO1` [Compound 58, (1R,3r)-3-((4-methyl-4H-1,2,4-triazol-3-yl)methyl)-3-(3-(6-(2-((R)-2-methylmorpholino)propan-2-yl)-1-oxo-4-(trifluoromethyl)isoindolin-2-yl)phenyl)cyclobutane-1-carbonitrile], the IC50 at Cbl-b (setting [3]) and on Cbl-b (setting [4]) was 2 to 5 nM throughout.
